Test results published in patent publication US9744222B2, “Peptide for vaccine” (Circassia Limited, priority 2007, dated 2017).
Where a SMILES comes first, the peptide text is derived from it.

Assay: Solubility pre-screen of peptides
Details: pre-screened for solubility in an aqueous, acidic milieu; YES/NO
Method: Methods The assay employed is a competitive MHC class II binding assay, wherein each peptide is analysed for its ability to displace a known control binder from each of the human MHC class II allotypes investigated.
Also shown is the solubility status of the peptide at the highest concentrations in the aqueous solution of the binding assay. The value illustrates the lowest concentration at which an insoluble white precipitate is seen.

Structure (SMILES)	Solubility test
CC[C@H](C)[C@H](NC(=O)[C@H](CCCCN)NC(=O)[C@H](CC(N)=O)NC(=O)[C@@H](NC(=O)[C@H](CC(N)=O)NC(=O)[C@@H]1CCCN1)C(C)C)C(=O)N[C@@H](CCCNC(=N)N)C(=O)N[C@@H](CCC(=O)O)C(=O)N[C@@H](C)C(=O)N[C@@H](CC(C)C)C(=O)N[C@@H](C)C(=O)N[C@@H](CCC(N)=O)C(=O)N[C@H](C(=O)O)[C@@H](C)O [HDM07] (H-PNVNKIREALAQT-OH; N-terminus and C-terminus assumed)	YES
CC(C)[C@H](NC(=O)[C@H](Cc1ccc(O)cc1)NC(=O)[C@@H](N)CCCNC(=N)N)C(=O)N[C@@H](C)C(=O)N[C@@H](CCCNC(=N)N)C(=O)N[C@@H](CCC(=O)O)C(=O)N[C@@H](CCC(N)=O)C(=O)N[C@@H](CO)C(=O)N[C@@H](CS)C(=O)N[C@@H](CCCNC(=N)N)C(=O)N[C@@H](CCCNC(=N)N)C(=O)N1CCC[C@H]1C(=O)N[C@@H](CC(N)=O)C(=O)O [HDM06] (H-RYVAREQSCRRPN-OH; N-terminus and C-terminus assumed)	YES
CC(C)C[C@H](NC(=O)[C@H](CCC(=O)O)NC(=O)[C@H](CCCCN)NC(=O)[C@H](CCCCN)NC(=O)[C@H](Cc1ccccc1)NC(=O)[C@H](C)NC(=O)[C@@H]1CCCN1C(=O)[C@H](C)NC(=O)[C@H](CC(C)C)NC(=O)[C@@H](NC(=O)[C@@H](N)CCCCN)C(C)C)C(=O)N[C@@H](CCC(=O)O)C(=O)N[C@@H](CCCNC(=N)N)C(=O)O [HDM50] (H-KVLAPAFKKELER-OH; N-terminus and C-terminus assumed)	YES
CC(C)C[C@H](NC(=O)[C@H](CCC(N)=O)NC(=O)[C@H](Cc1ccccc1)NC(=O)[C@@H]1CCCN1C(=O)[C@@H](N)CCCCN)C(=O)N[C@@H](CCC(=O)O)C(=O)N[C@@H](C)C(=O)N[C@H](C(=O)N[C@@H](Cc1ccccc1)C(=O)N[C@@H](CCC(=O)O)C(=O)N[C@@H](C)C(=O)N[C@@H](CC(N)=O)C(=O)N[C@@H](CCC(N)=O)C(=O)N[C@@H](CC(N)=O)C(=O)N[C@H](C(=O)O)[C@@H](C)O)C(C)C [HDM21] (H-KPFQLEAVFEANQNT-OH; N-terminus and C-terminus assumed)	YES
CC[C@H](C)[C@H](NC(=O)[C@H](Cc1ccc(O)cc1)NC(=O)[C@@H](N)CCC(=O)O)C(=O)N[C@@H](CCC(N)=O)C(=O)N[C@@H](Cc1c[nH]cn1)C(=O)N[C@@H](CC(N)=O)C(=O)NCC(=O)N[C@H](C(=O)N[C@H](C(=O)N[C@@H](CCC(N)=O)C(=O)N[C@@H](CCC(=O)O)C(=O)N[C@@H](CO)C(=O)N[C@@H](Cc1ccc(O)cc1)C(=O)O)C(C)C)C(C)C [HDM05] (H-EYIQHNGVVQESY-OH; N-terminus and C-terminus assumed)	YES
CC[C@H](C)[C@H](NC(=O)[C@H](CC(N)=O)NC(=O)[C@@H](N)CCCNC(=N)N)C(=O)N[C@@H](CCC(N)=O)C(=O)N[C@H](C(=O)N[C@@H](CCCNC(=N)N)C(=O)NCC(=O)N[C@@H](CC(C)C)C(=O)N[C@@H](CCCCN)C(=O)N[C@@H](CCC(N)=O)C(=O)N[C@@H](CCSC)C(=O)N[C@@H](CCCCN)C(=O)N[C@@H](CCCNC(=N)N)C(=O)N[C@H](C(=O)NCC(=O)O)C(C)C)C(C)C [HDM34] (H-RNIQVRGLKQMKRVG-OH; N-terminus and C-terminus assumed)	YES
CC[C@H](C)[C@H](NC(=O)[C@H](CCCCN)NC(=O)[C@@H](N)CC(N)=O)C(=O)N[C@@H](CCCNC(=N)N)C(=O)N[C@@H](CCC(=O)O)C(=O)N[C@@H](C)C(=O)N[C@@H](CC(C)C)C(=O)N[C@@H](C)C(=O)N[C@@H](CCC(N)=O)C(=O)N[C@H](C(=O)N[C@@H](Cc1c[nH]cn1)C(=O)N[C@@H](CO)C(=O)N[C@@H](C)C(=O)O)[C@@H](C)O [HDM08] (H-NKIREALAQTHSA-OH; N-terminus and C-terminus assumed)	YES
CSCC[C@H](NC(=O)[C@@H]1CCCN1C(=O)[C@H](CC(=O)O)NC(=O)[C@H](Cc1ccccc1)NC(=O)[C@@H](NC(=O)[C@@H](N)CCC(=O)O)[C@@H](C)O)C(=O)N[C@@H](CCCCN)C(=O)N[C@H](C(=O)N1CCC[C@H]1C(=O)N[C@@H](CC(=O)O)C(=O)N[C@@H](Cc1c[nH]cn1)C(=O)N[C@@H](CO)C(=O)N[C@@H](CC(=O)O)C(=O)N[C@@H](CCCCN)C(=O)O)C(C)C [HDM29A] (H-ETFDPMKVPDHSDK-OH; N-terminus and C-terminus assumed)	YES
CSCC[C@H](NC(=O)[C@H](CCC(N)=O)NC(=O)[C@H](CCCCN)NC(=O)[C@H](CC(C)C)NC(=O)CNC(=O)[C@@H](N)CCCNC(=N)N)C(=O)N[C@@H](CCCCN)C(=O)N[C@@H](CCCNC(=N)N)C(=O)N[C@H](C(=O)NCC(=O)N[C@@H](CC(=O)O)C(=O)N[C@@H](C)C(=O)N[C@@H](CC(N)=O)C(=O)O)C(C)C [HDM35] (H-RGLKQMKRVGDAN-OH; N-terminus and C-terminus assumed)	YES
CC[C@H](C)[C@H](NC(=O)[C@H](CC(N)=O)NC(=O)[C@H](CCCNC(=N)N)NC(=O)[C@H](CCSC)NC(=O)[C@H](CC(=O)O)NC(=O)[C@@H](N)CC(C)C)C(=O)N[C@@H](CCC(N)=O)C(=O)N[C@H](C(=O)N[C@@H](CCCNC(=N)N)C(=O)NCC(=O)N[C@@H](CC(C)C)C(=O)N[C@@H](CCCCN)C(=O)N[C@@H](CCC(N)=O)C(=O)O)C(C)C [HDM33] (H-LDMRNIQVRGLKQ-OH; N-terminus and C-terminus assumed)	YES
C[C@@H](O)[C@H](NC(=O)[C@H](CC(=O)O)NC(=O)[C@H](Cc1c[nH]c2ccccc12)NC(=O)[C@H](CO)NC(=O)[C@H](CC(N)=O)NC(=O)[C@@H](N)CCCNC(=N)N)C(=O)N[C@@H](CC(N)=O)C(=O)N[C@@H](Cc1c[nH]c2ccccc12)C(=O)NCC(=O)N[C@@H](CC(=O)O)C(=O)N[C@@H](CC(N)=O)C(=O)NCC(=O)N[C@@H](Cc1ccc(O)cc1)C(=O)NCC(=O)O [HDM16A] (H-RNSWDTNWGDNGYG-OH; N-terminus and C-terminus assumed)	YES
CC(C)C[C@H](NC(=O)[C@H](CCC(N)=O)NC(=O)[C@H](Cc1ccccc1)NC(=O)[C@@H]1CCCN1C(=O)[C@@H](N)CCCCN)C(=O)N[C@@H](CCC(=O)O)C(=O)N[C@@H](C)C(=O)N[C@H](C(=O)N[C@@H](Cc1ccccc1)C(=O)N[C@@H](CCC(=O)O)C(=O)N[C@@H](C)C(=O)N[C@@H](CC(N)=O)C(=O)N[C@@H](CCC(N)=O)C(=O)N[C@@H](CC(N)=O)C(=O)N[C@H](C(=O)N[C@@H](CCCCN)C(=O)O)[C@@H](C)O)C(C)C [HDM21A] (H-KPFQLEAVFEANQNTK-OH; N-terminus and C-terminus assumed)	YES
CSCC[C@H](NC(=O)[C@@H]1CCCN1C(=O)[C@H](CC(=O)O)NC(=O)[C@H](Cc1ccccc1)NC(=O)[C@@H](NC(=O)[C@H](CCC(=O)O)NC(=O)[C@H](CO)NC(=O)[C@@H](N)CCCCN)[C@@H](C)O)C(=O)N[C@@H](CCCCN)C(=O)N[C@H](C(=O)N1CCC[C@H]1C(=O)N[C@@H](CC(=O)O)C(=O)N[C@@H](Cc1c[nH]cn1)C(=O)N[C@@H](CO)C(=O)N[C@@H](CC(=O)O)C(=O)O)C(C)C [HDM29B] (H-KSETFDPMKVPDHSD-OH; N-terminus and C-terminus assumed)	YES
CC[C@H](C)[C@H](N)C(=O)NCC(=O)N[C@H](C(=O)N[C@@H](CCCCN)C(=O)N[C@@H](CC(=O)O)C(=O)N[C@@H](CC(C)C)C(=O)N[C@@H](CC(=O)O)C(=O)N[C@@H](C)C(=O)N[C@@H](Cc1ccccc1)C(=O)N[C@@H](CCCNC(=N)N)C(=O)N[C@@H](Cc1c[nH]cn1)C(=O)N[C@@H](Cc1ccc(O)cc1)C(=O)N[C@@H](CC(=O)O)C(=O)O)[C@@H](C)CC [HDM11] (H-IGIKDLDAFRHYD-OH; N-terminus and C-terminus assumed)	YES
CC[C@H](C)[C@H](NC(=O)[C@@H](NC(=O)[C@H](C)NC(=O)[C@@H](NC(=O)[C@H](C)NC(=O)[C@H](CO)NC(=O)[C@H](Cc1c[nH]cn1)NC(=O)[C@@H](NC(=O)[C@H](CCC(N)=O)NC(=O)[C@H](C)NC(=O)[C@H](CC(C)C)NC(=O)[C@H](C)NC(=O)[C@H](CCC(=O)O)NC(=O)[C@@H](N)CCCNC(=N)N)[C@@H](C)O)[C@@H](C)CC)C(C)C)C(=O)O [HDM09A] (H-REALAQTHSAIAVI-OH; N-terminus and C-terminus assumed)	YES
CC(C)C[C@H](NC(=O)[C@H](CC(=O)O)NC(=O)[C@H](CC(C)C)NC(=O)[C@H](CO)NC(=O)[C@H](CCC(N)=O)NC(=O)[C@H](CC(N)=O)NC(=O)[C@@H](N)CCCNC(=N)N)C(=O)N[C@@H](C)C(=O)N[C@@H](CCC(=O)O)C(=O)N[C@@H](CCC(N)=O)C(=O)N[C@@H](CCC(=O)O)C(=O)N[C@@H](CC(C)C)C(=O)N[C@H](C(=O)N[C@@H](CC(=O)O)C(=O)N[C@@H](CS)C(=O)N[C@@H](C)C(=O)N[C@@H](CO)C(=O)N[C@@H](CCC(N)=O)C(=O)N[C@@H](Cc1c[nH]cn1)C(=O)O)C(C)C [HDM03C] (H-RNQSLDLAEQELVDCASQH-OH; N-terminus and C-terminus assumed)	YES
CC[C@H](C)[C@H](NC(=O)[C@@H]1CCCN1C(=O)[C@@H](NC(=O)[C@@H](NC(=O)[C@@H](NC(=O)[C@@H](N)CCCNC(=N)N)[C@@H](C)O)C(C)C)[C@@H](C)O)C(=O)N[C@@H](CCCNC(=N)N)C(=O)N[C@@H](CCSC)C(=O)N[C@@H](CCC(N)=O)C(=O)NCC(=O)NCC(=O)N[C@@H](CS)C(=O)NCC(=O)O [HDM02] (H-RTVTPIRMQGGCG-OH; N-terminus and C-terminus assumed)	YES
CC[C@H](C)[C@H](NC(=O)CNC(=O)[C@@H](NC(=O)[C@H](Cc1c[nH]cn1)NC(=O)[C@H](CCCNC(=N)N)NC(=O)[C@H](CCC(=O)O)NC(=O)[C@H](Cc1ccccc1)NC(=O)[C@H](CCCCN)NC(=O)[C@@H](N)CC(=O)O)[C@@H](C)CC)C(=O)N[C@H](C(=O)N[C@@H](CC(=O)O)C(=O)N[C@@H](CC(C)C)C(=O)N[C@@H](CCCCN)C(=O)O)[C@@H](C)CC [HDM30] (H-DKFERHIGIIDLK-OH; N-terminus and C-terminus assumed)	YES
